Results published in patent US20230202989A1, “COMPOUNDS” (JANSSEN PHARMACEUTICA NV, priority 2020, published 2023).
Read-outs that look alike come from different tables or passages of the source.

What was measured:
[1] = test system: IL-1β; assay: PBMC assay: inhibition of IL-1β release after LPS stimulation (MSD); format: cell-based; details: human PBMCs, read-out: IL1β IC50
Outline: (§1)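 Cryopreserved human PBMCs (7.5×10^4/well) in RPMI/10% FBS were preincubated with serially diluted compound for 30 min at 37 °C, then stimulated with 100 ng/ml LPS for 6 h. Supernatant IL-1β and TNF measured by MSD. IC50 derived for IL-1β, EC50 for TNF.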

[2] = test system: TNF; assay: PBMC assay: TNF cytokine levels after LPS stimulation (MSD); format: cell-based; details: human PBMCs, 100 ng/ml LPS for 6 hrs
Outline: as §1

[3] = Homo sapiens, PBMC, 6 h, 100 ng/ml LPS for 6 hrs, MSD, 96 well plates

IC50 [1, 3] [nM]	EC50 ([2]; Homo sapiens, PBMC, 6 h) [nM]	IC50 ([1]; Homo sapiens, PBMC, LPS stimulation, 384 well plate) [nM]	IC50 ([1]; 100 ng/ml LPS for 6 hrs, MSD, 96 well plates) [nM]	EC50 [2] [nM]	Compound
1290	> 10000	–	–	–	CCc1nn(CC(=O)N[C@H]2CC[C@H](O)CC2)c(=O)c2ccc(C(F)(F)F)cc12 [Final Cpd 30]
178	> 20000	–	–	–	CC(C)c1nn(CC(=O)Nc2ccc3ncn(C)c3c2)c(=O)c2ccc(C(F)(F)F)cc12 [Final Cpd X25]
116	> 20000	–	–	–	CC(C)c1nn(CC(=O)Nc2cn3cnnc3cn2)c(=O)c2ccc(C(F)(F)F)cc12 [Final Cpd X14, N-([1,2,4]triazolo[4,3-a]pyrazin-6-yl)-2-(4-isopropyl-1-oxo-6-(trifluoromethyl)phthalazin-2(1H)-yl)acetamide]
220	> 20000	–	–	–	CCc1ccc2c(=O)n(CC(=O)Nc3ccc4nncn4c3)nc(C(C)C)c2c1 [X-1073]
133	> 20000	–	–	–	C[C@]1(O)C[C@@H](NC(=O)Cn2nc(C(F)F)c3cc(Br)ccc3c2=O)C1 [X-1020]
1640	> 20000	–	–	–	CC(C)c1nn(CC(=O)N[C@@H]2CC[C@@](C)(O)C2)c(=O)c2ccc(C(F)(F)F)cc12 [Final Cpd X110]
113	> 20000	–	–	–	CC[C@@H](C)c1nn(CC(=O)Nc2ccc3nncn3c2)c(=O)c2ccc(C(F)(F)F)cc12 (single isomer, unassigned) [Final Cpd X12]
90	> 20000	–	–	–	CC(C)c1nn(CC(=O)N[C@H]2C[C@@](C)(O)C2)c(=O)c2ccc(C(C)(F)F)cc12 [X-1062]
< 120	> 10000	–	–	–	CC(C)c1ccc2c(=O)n(CC(=O)Nc3ccc4nncn4c3)nc(C(C)C)c2c1 [Final Cpd 33]
437	> 20000	–	–	–	Cn1nc(NC(=O)Cn2nc(C(F)F)c3cc(Br)ccc3c2=O)ccc1=O [X-1021]
144	16500	–	–	–	CC(C)c1nn(CC(=O)Nc2ccc3nccn3c2)c(=O)c2ccc(C(C)(C)F)cc12 [X-1077]
> 20000	> 20000	–	–	–	CC(C)c1nn(CC(=O)Nc2cc(C(F)(F)F)ncn2)c(=O)c2ccc(C(F)(F)F)cc12 [Final Cpd X178]
51	4010	–	–	–	CC(C)c1nn(CC(=O)Nc2ccc3nncn3n2)c(=O)c2ccc(C(F)(F)F)c(F)c12 [Final Cpd X3]
668	> 20000	–	–	–	CC(C)c1nn(CC(=O)Nc2ccc3nc(C(F)(F)F)cn3c2)c(=O)c2ccc(C(F)(F)F)cc12 [Final Cpd X64, 2-(4-isopropyl-1-oxo-6-(trifluoromethyl)phthalazin-2(1H)-yl)-N-(2-(trifluoromethyl)imidazo[1,2-a]pyridin-6-yl)acetamide]
156	6780	–	–	–	CC(C)c1nn(CC(=O)Nc2ccc(=O)n(C)c2)c(=O)c2ccc(C(C)(F)F)cc12 [X-1066]
< 25	> 10000	–	–	–	CC(C)c1nn(CC(=O)N[C@H]2C[C@@](C)(O)C2)c(=O)c2ccc(Br)cc12 [Final Cpd 37]
866	> 20000	–	–	–	CC(C)c1nn(CC(=O)Nc2ncc3c(ncn3C)n2)c(=O)c2ccc(C(F)(F)F)cc12 [Final Cpd X80]
> 20000	> 20000	–	–	–	CCN1CCc2cc(NC(=O)Cn3nc(C(C)C)c4cc(C(F)(F)F)ccc4c3=O)ccc21 [Final Cpd X171]
30	4640	–	–	–	CC(C)c1nn(CC(=O)Nc2ccc3c(c2)[nH]c(=O)n3C)c(=O)c2ccc(Br)cc12 [X-1031]
1240	> 10000	–	–	–	CCc1nn(CC(=O)Nc2ccncn2)c(=O)c2ccc(OC)cc12 [Final Cpd 11]
1330	> 20000	–	–	–	CC(C)c1nn(CC(=O)N[C@H]2C[C@@](C)(O)C2)c(=O)c2ccc(OC(F)(F)F)cc12 [X-1041]
103	13600	–	–	–	CC(C)c1nn(CC(=O)Nc2ccc3nncn3c2)c(=O)c2ccc(C3CC3)cc12 [Final Cpd 31]
2110	> 20000	–	–	–	CCN1C[C@H](NC(=O)Cn2nc(C(C)C)c3cc(C(F)(F)F)ccc3c2=O)CC(F)(F)C1 [Final Cpd X117]

IC50 [1, 3] [nM]	EC50 ([2]; Homo sapiens, PBMC, 6 h) [nM]	IC50 ([1]; Homo sapiens, PBMC, LPS stimulation, 384 well plate) [nM]	IC50 ([1]; 100 ng/ml LPS for 6 hrs, MSD, 96 well plates) [nM]	EC50 [2] [nM]	Compound
2760	> 20000	–	–	–	CC(C)c1nn(CC(=O)N[C@H]2CC[C@H]2O)c(=O)c2ccc(C(F)(F)F)cc12 (single isomer, unassigned) [Final Cpd X124]
2910	> 10000	–	–	–	CCc1nn(CC(=O)Nc2ccncn2)c(=O)c2ccc(C)cc12 [Final Cpd 4]
4930	> 20000	–	–	–	CCN1CCC(NC(=O)Cn2nc(C(C)C)c3cc(C(F)(F)F)ccc3c2=O)CC1 [Final Cpd X143]
4380	8290	–	–	–	CC(C)c1nn(CC(=O)Nc2ccncn2)c(=O)c2ccc(C(C)(C)O)cc12 [X-1044]
894	> 20000	–	–	–	CC(O)c1nn(CC(=O)Nc2ccncn2)c(=O)c2ccc(Br)cc12 (centres unmarked) [X-1081]
551	> 20000	–	–	–	CC(=O)c1nn(CC(=O)Nc2ccc3nncn3c2)c(=O)c2ccc(C(F)(F)F)cc12 [Final Cpd X58]
17	3110	–	–	–	CC(C)c1nn(CC(=O)Nc2ccc3nncn3n2)c(=O)c2ccc(C(C)(C)F)cc12 [X-1010]
–	> 10000	920	–	–	CCc1nn(CC(=O)Nc2ccncn2)c(=O)c2ccc(C(F)F)cc12 [Final Cpd 16]
233	> 20000	–	–	–	CC(C)c1nn(CC(=O)Nc2ccc3nccn3c2)c(=O)c2ccc(C(F)(F)F)cc12 [Final Cpd X31]
156	> 20000	–	–	–	CC(C)c1nn(CC(=O)Nc2ccc3nnnn3n2)c(=O)c2ccc(C(F)(F)F)cc12 [Final Cpd X18]
3590	> 10000	–	–	–	CCc1ccc2c(=O)n(CC(=O)N[C@H]3CC[C@H](O)CC3)nc(CC)c2c1 [Final Cpd 29]
–	–	–	2520	> 20000	COc1ccc2c(=O)n(CC(=O)Nc3ccncn3)nc(C(C)C)c2c1 [X-1025]
502	> 20000	–	–	–	CC(O)c1nn(CC(=O)N[C@H]2C[C@@](C)(O)C2)c(=O)c2ccc(Br)cc12 (some centres unmarked) [X-1080]
3010	> 20000	–	–	–	CC(C)c1nn(CC(=O)Nc2ccc3cnn(C(F)F)c3c2)c(=O)c2ccc(Br)cc12 [X-1034]
1740	> 20000	–	–	–	CC(C)c1nn(CC(=O)N[C@H]2C[C@@](C)(O)C2)c(=O)c2ccc(C#N)cc12 [X-1060]
1140	14100	–	–	–	CC(C)c1nn(CC(=O)Nc2ccc3nncn3c2)c(=O)c2ccc(C3CC3(F)F)cc12 (centres unmarked) [X-1069]
2340	> 20000	–	–	–	CCc1nn(CC(=O)N[C@H]2C[C@@](C)(O)C2)c(=O)c2ccc(N(C)C)cc12 [X-1037]
304	> 20000	–	–	–	C[C@]1(O)C[C@@H](NC(=O)Cn2nc(C(F)F)c3cc(C(F)(F)F)ccc3c2=O)C1 [Final Cpd X36]
1070	> 20000	–	–	–	CC(C)c1nn(CC(=O)N[C@H]2C[C@H](O)C2)c(=O)c2ccc(C(F)(F)F)cc12 [Final Cpd X94]
> 20000	> 20000	–	–	–	CCc1nn(CC(=O)NC2CC2)c(=O)c2ccccc12 [Final Cpd 14]
293	15700	–	–	–	CC(C)c1nn(CC(=O)Nc2ccc(=O)n(C)n2)c(=O)c2ccc(C(C)(F)F)cc12 [X-1065]
252	> 20000	–	–	–	CC(C)c1nn(CC(=O)Nc2ccc(=O)n(C)n2)c(=O)c2ccc(C(F)(F)F)cc12 [Final Cpd X33]
89	7560	–	–	–	CC(C)c1nn(CC(=O)Nc2ccc3nccn3n2)c(=O)c2ccc(C(C)(C)F)cc12 [X-1011]
